According to the supplement of paper PMC10307832:

Key:
Test in all cases: relative viability (nuclei count vs DMSO), 5 days (fraction); higher = more cells survive
[1] = compound: CC1CC(=O)N(C2=CN=C(N=C2N1C3CCCC3)NC4=C(C=C(C=C4)C(=O)NC5CCN(CC5)C)OC)C [NPK76-II-72-1] + COc1cccc2cc(-c3nc([C@H]4CC[C@H](C(=O)O)CC4)n4ncnc(N)c34)[nH]c12 [OSI-027] (partner 0.5 µM)
How it was run: (§1)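 Five library-drug doses in √10 steps were combined with a fixed anchor-drug dose, or a single drug was given alone, by pin tool to lung cancer cell lines in 1536-well plates the day after seeding. Nuclei were stained and counted after 5 days. Relative viability is the nuclei count in treated wells over that in vehicle wells, taken as the median of duplicate plates.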

[2] = compound: CC1CC(=O)N(C2=CN=C(N=C2N1C3CCCC3)NC4=C(C=C(C=C4)C(=O)NC5CCN(CC5)C)OC)C [NPK76-II-72-1] + Cc1cc(Nc2cc(N3CCN(C)CC3)nc(Sc3ccc(NC(=O)C4CC4)cc3)n2)n[nH]1 [Tozasertib] (partner 0.1 µM)
How it was run: as §1

[3] = compound: CC1CC(=O)N(C2=CN=C(N=C2N1C3CCCC3)NC4=C(C=C(C=C4)C(=O)NC5CCN(CC5)C)OC)C [NPK76-II-72-1] + C[C@]1(O)C[C@@H](c2nc(-c3ccc4ccc(-c5ccccc5)nc4c3)c3c(N)nccn32)C1 [Linsitinib] (partner 1 µM)
How it was run: as §1

[4] = compound: CC1CC(=O)N(C2=CN=C(N=C2N1C3CCCC3)NC4=C(C=C(C=C4)C(=O)NC5CCN(CC5)C)OC)C [NPK76-II-72-1] + CS(=O)(=O)N1CCN(Cc2cc3nc(-c4cccc5[nH]ncc45)nc(N4CCOCC4)c3s2)CC1 [Pictilisib] (partner 1 µM)
How it was run: as §1

NCI-H2347
relative viability ([1]; first compound 0.01 µM): 0.407 | relative viability ([1]; first compound 0.03162 µM): 0.502 | relative viability ([1]; first compound 0.1 µM): 0.466 | relative viability ([1]; first compound 0.3162 µM): 0.366 | relative viability ([1]; first compound 1 µM): 0.274 | relative viability ([2]; first compound 0.01 µM): 0.405 | relative viability ([2]; first compound 0.03162 µM): 0.542 | relative viability ([2]; first compound 0.1 µM): 0.507 | relative viability ([2]; first compound 0.3162 µM): 0.589 | relative viability ([2]; first compound 1 µM): 0.638 | relative viability ([3]; first compound 0.01 µM): 0.925 | relative viability ([3]; first compound 0.03162 µM): 1.03 | relative viability ([3]; first compound 0.1 µM): 1 | relative viability ([3]; first compound 0.3162 µM): 0.896 | relative viability ([3]; first compound 1 µM): 0.983 | relative viability ([4]; first compound 0.01 µM): 0.811 | relative viability ([4]; first compound 0.03162 µM): 0.817 | relative viability ([4]; first compound 0.1 µM): 0.727 | relative viability ([4]; first compound 0.3162 µM): 0.773 | relative viability ([4]; first compound 1 µM): 0.631

NCI-H2405
relative viability ([1]; first compound 0.01 µM): 0.64 | relative viability ([1]; first compound 0.03162 µM): 0.672 | relative viability ([1]; first compound 0.1 µM): 0.633 | relative viability ([1]; first compound 0.3162 µM): 0.627 | relative viability ([1]; first compound 1 µM): 0.67 | relative viability ([2]; first compound 0.01 µM): 0.723 | relative viability ([2]; first compound 0.03162 µM): 0.871 | relative viability ([2]; first compound 0.1 µM): 0.762 | relative viability ([2]; first compound 0.3162 µM): 0.743 | relative viability ([2]; first compound 1 µM): 0.816 | relative viability ([3]; first compound 0.01 µM): 0.88 | relative viability ([3]; first compound 0.03162 µM): 1.01 | relative viability ([3]; first compound 0.1 µM): 0.905 | relative viability ([3]; first compound 0.3162 µM): 0.819 | relative viability ([3]; first compound 1 µM): 1.08 | relative viability ([4]; first compound 0.01 µM): 0.485 | relative viability ([4]; first compound 0.03162 µM): 0.467 | relative viability ([4]; first compound 0.1 µM): 0.479 | relative viability ([4]; first compound 0.3162 µM): 0.453 | relative viability ([4]; first compound 1 µM): 0.452

NCI-H3122
relative viability ([1]; first compound 0.01 µM): 0.856 | relative viability ([1]; first compound 0.03162 µM): 0.914 | relative viability ([1]; first compound 0.1 µM): 0.929 | relative viability ([1]; first compound 0.3162 µM): 0.911 | relative viability ([1]; first compound 1 µM): 1.02 | relative viability ([2]; first compound 0.01 µM): 0.389 | relative viability ([2]; first compound 0.03162 µM): 0.425 | relative viability ([2]; first compound 0.1 µM): 0.366 | relative viability ([2]; first compound 0.3162 µM): 0.365 | relative viability ([2]; first compound 1 µM): 0.465 | relative viability ([3]; first compound 0.01 µM): 0.945 | relative viability ([3]; first compound 0.03162 µM): 1.03 | relative viability ([3]; first compound 0.1 µM): 1.09 | relative viability ([3]; first compound 0.3162 µM): 1.03 | relative viability ([3]; first compound 1 µM): 1.05 | relative viability ([4]; first compound 0.01 µM): 0.625 | relative viability ([4]; first compound 0.03162 µM): 0.618 | relative viability ([4]; first compound 0.1 µM): 0.601 | relative viability ([4]; first compound 0.3162 µM): 0.652 | relative viability ([4]; first compound 1 µM): 0.63

PC-3 [JPC-3]
relative viability ([1]; first compound 0.01 µM): 0.664 | relative viability ([1]; first compound 0.03162 µM): 0.742 | relative viability ([1]; first compound 0.1 µM): 0.78 | relative viability ([1]; first compound 0.3162 µM): 0.711 | relative viability ([1]; first compound 1 µM): 0.889 | relative viability ([2]; first compound 0.01 µM): 0.882 | relative viability ([2]; first compound 0.03162 µM): 0.861 | relative viability ([2]; first compound 0.1 µM): 0.81 | relative viability ([2]; first compound 0.3162 µM): 0.904 | relative viability ([2]; first compound 1 µM): 0.93 | relative viability ([3]; first compound 0.01 µM): 0.927 | relative viability ([3]; first compound 0.03162 µM): 0.91 | relative viability ([3]; first compound 0.1 µM): 0.936 | relative viability ([3]; first compound 0.3162 µM): 0.935 | relative viability ([3]; first compound 1 µM): 0.963 | relative viability ([4]; first compound 0.01 µM): 0.779 | relative viability ([4]; first compound 0.03162 µM): 0.772 | relative viability ([4]; first compound 0.1 µM): 0.561 | relative viability ([4]; first compound 0.3162 µM): 0.667 | relative viability ([4]; first compound 1 µM): 0.743

PC-14
relative viability ([1]; first compound 0.01 µM): 0.778 | relative viability ([1]; first compound 0.03162 µM): 0.935 | relative viability ([1]; first compound 0.1 µM): 0.981 | relative viability ([1]; first compound 0.3162 µM): 0.667 | relative viability ([1]; first compound 1 µM): 1.08 | relative viability ([2]; first compound 0.01 µM): 0.577 | relative viability ([2]; first compound 0.03162 µM): 0.609 | relative viability ([2]; first compound 0.1 µM): 0.594 | relative viability ([2]; first compound 0.3162 µM): 0.564 | relative viability ([2]; first compound 1 µM): 0.699 | relative viability ([3]; first compound 0.01 µM): 0.927 | relative viability ([3]; first compound 0.03162 µM): 1.1 | relative viability ([3]; first compound 0.1 µM): 0.938 | relative viability ([3]; first compound 0.3162 µM): 0.874 | relative viability ([3]; first compound 1 µM): 1.06 | relative viability ([4]; first compound 0.01 µM): 0.6 | relative viability ([4]; first compound 0.03162 µM): 0.692 | relative viability ([4]; first compound 0.1 µM): 0.619 | relative viability ([4]; first compound 0.3162 µM): 0.6 | relative viability ([4]; first compound 1 µM): 0.805

RERF-LC-KJ
relative viability ([1]; first compound 0.01 µM): 0.63 | relative viability ([1]; first compound 0.03162 µM): 0.636 | relative viability ([1]; first compound 0.1 µM): 0.651 | relative viability ([1]; first compound 0.3162 µM): 0.525 | relative viability ([1]; first compound 1 µM): 0.628 | relative viability ([2]; first compound 0.01 µM): 0.589 | relative viability ([2]; first compound 0.03162 µM): 0.51 | relative viability ([2]; first compound 0.1 µM): 0.573 | relative viability ([2]; first compound 0.3162 µM): 0.548 | relative viability ([2]; first compound 1 µM): 0.513 | relative viability ([3]; first compound 0.01 µM): 0.902 | relative viability ([3]; first compound 0.03162 µM): 0.876 | relative viability ([3]; first compound 0.1 µM): 0.802 | relative viability ([3]; first compound 0.3162 µM): 0.771 | relative viability ([3]; first compound 1 µM): 0.923 | relative viability ([4]; first compound 0.01 µM): 0.491 | relative viability ([4]; first compound 0.03162 µM): 0.543 | relative viability ([4]; first compound 0.1 µM): 0.546 | relative viability ([4]; first compound 0.3162 µM): 0.482 | relative viability ([4]; first compound 1 µM): 0.492

SK-LU-1
relative viability ([1]; first compound 0.01 µM): 0.321 | relative viability ([1]; first compound 0.03162 µM): 0.355 | relative viability ([1]; first compound 0.1 µM): 0.368 | relative viability ([1]; first compound 0.3162 µM): 0.361 | relative viability ([1]; first compound 1 µM): 0.406 | relative viability ([2]; first compound 0.01 µM): 0.341 | relative viability ([2]; first compound 0.03162 µM): 0.351 | relative viability ([2]; first compound 0.1 µM): 0.361 | relative viability ([2]; first compound 0.3162 µM): 0.305 | relative viability ([2]; first compound 1 µM): 0.38 | relative viability ([3]; first compound 0.01 µM): 1.07 | relative viability ([3]; first compound 0.03162 µM): 1.09 | relative viability ([3]; first compound 0.1 µM): 1.16 | relative viability ([3]; first compound 0.3162 µM): 1.02 | relative viability ([3]; first compound 1 µM): 1.33 | relative viability ([4]; first compound 0.01 µM): 0.532 | relative viability ([4]; first compound 0.03162 µM): 0.648 | relative viability ([4]; first compound 0.1 µM): 0.514 | relative viability ([4]; first compound 0.3162 µM): 0.645 | relative viability ([4]; first compound 1 µM): 0.584

SK-MES-1
relative viability ([1]; first compound 0.01 µM): 0.585 | relative viability ([1]; first compound 0.03162 µM): 0.617 | relative viability ([1]; first compound 0.1 µM): 0.583 | relative viability ([1]; first compound 0.3162 µM): 0.661 | relative viability ([1]; first compound 1 µM): 0.742 | relative viability ([2]; first compound 0.01 µM): 0.938 | relative viability ([2]; first compound 0.03162 µM): 0.999 | relative viability ([2]; first compound 0.1 µM): 0.876 | relative viability ([2]; first compound 0.3162 µM): 0.937 | relative viability ([2]; first compound 1 µM): 0.922 | relative viability ([3]; first compound 0.01 µM): 1.05 | relative viability ([3]; first compound 0.03162 µM): 1.07 | relative viability ([3]; first compound 0.1 µM): 0.994 | relative viability ([3]; first compound 0.3162 µM): 0.995 | relative viability ([3]; first compound 1 µM): 1.15 | relative viability ([4]; first compound 0.01 µM): 0.429 | relative viability ([4]; first compound 0.03162 µM): 0.384 | relative viability ([4]; first compound 0.1 µM): 0.295 | relative viability ([4]; first compound 0.3162 µM): 0.376 | relative viability ([4]; first compound 1 µM): 0.318

SW 1573
relative viability ([1]; first compound 0.01 µM): 0.704 | relative viability ([1]; first compound 0.03162 µM): 0.65 | relative viability ([1]; first compound 0.1 µM): 0.603 | relative viability ([1]; first compound 0.3162 µM): 0.599 | relative viability ([1]; first compound 1 µM): 0.664 | relative viability ([2]; first compound 0.01 µM): 0.168 | relative viability ([2]; first compound 0.03162 µM): 0.208 | relative viability ([2]; first compound 0.1 µM): 0.238 | relative viability ([2]; first compound 0.3162 µM): 0.265 | relative viability ([2]; first compound 1 µM): 0.21 | relative viability ([3]; first compound 0.01 µM): 0.808 | relative viability ([3]; first compound 0.03162 µM): 0.794 | relative viability ([3]; first compound 0.1 µM): 0.721 | relative viability ([3]; first compound 0.3162 µM): 0.728 | relative viability ([3]; first compound 1 µM): 0.681 | relative viability ([4]; first compound 0.01 µM): 0.425 | relative viability ([4]; first compound 0.03162 µM): 0.497 | relative viability ([4]; first compound 0.1 µM): 0.498 | relative viability ([4]; first compound 0.3162 µM): 0.455 | relative viability ([4]; first compound 1 µM): 0.463
